In ChEMBL document CHEMBL4376872, “Scaffold Hopping of Natural Product Evodiamine: Discovery of a Novel Antitumor Scaffold with Excellent Potency against Colon Cancer” (J Med Chem, 2020):
Calls of active or inactive are those of the source. No cut-off for these calls is given here.

Legend:
MDA-MB-435 = assay: Antiproliferative activity against human MDA-MB-435 cells assessed as reduction in cell viability incubated for 72 hrs by CCK8 assay; format: functional, cell-based; conditions: MDA-MB-435, 72 h
A549 = assay: Antiproliferative activity against human A549 cells assessed as reduction in cell viability incubated for 72 hrs by CCK8 assay; format: functional, cell-based; conditions: A549, 72 h
HCT-116 = assay: Antiproliferative activity against human HCT116 cells assessed as reduction in cell viability incubated for 72 hrs by CCK8 assay; format: functional, cell-based; conditions: HCT-116, 72 h
[1] = molecular target: T1, DNA topoisomerase 1 (Escherichia coli (strain K12)) (UniProt P06612); assay: Inhibition of Escherichia coli Top1 assessed as decrease in relaxation of supercoiled pBR322 plasmid DNA at 100 uM using supercoiled pBR322 plasmid DNA as substrate incubated for 15 mins by agarose gel electrophoresis analysis
T1 sequence (whole entry): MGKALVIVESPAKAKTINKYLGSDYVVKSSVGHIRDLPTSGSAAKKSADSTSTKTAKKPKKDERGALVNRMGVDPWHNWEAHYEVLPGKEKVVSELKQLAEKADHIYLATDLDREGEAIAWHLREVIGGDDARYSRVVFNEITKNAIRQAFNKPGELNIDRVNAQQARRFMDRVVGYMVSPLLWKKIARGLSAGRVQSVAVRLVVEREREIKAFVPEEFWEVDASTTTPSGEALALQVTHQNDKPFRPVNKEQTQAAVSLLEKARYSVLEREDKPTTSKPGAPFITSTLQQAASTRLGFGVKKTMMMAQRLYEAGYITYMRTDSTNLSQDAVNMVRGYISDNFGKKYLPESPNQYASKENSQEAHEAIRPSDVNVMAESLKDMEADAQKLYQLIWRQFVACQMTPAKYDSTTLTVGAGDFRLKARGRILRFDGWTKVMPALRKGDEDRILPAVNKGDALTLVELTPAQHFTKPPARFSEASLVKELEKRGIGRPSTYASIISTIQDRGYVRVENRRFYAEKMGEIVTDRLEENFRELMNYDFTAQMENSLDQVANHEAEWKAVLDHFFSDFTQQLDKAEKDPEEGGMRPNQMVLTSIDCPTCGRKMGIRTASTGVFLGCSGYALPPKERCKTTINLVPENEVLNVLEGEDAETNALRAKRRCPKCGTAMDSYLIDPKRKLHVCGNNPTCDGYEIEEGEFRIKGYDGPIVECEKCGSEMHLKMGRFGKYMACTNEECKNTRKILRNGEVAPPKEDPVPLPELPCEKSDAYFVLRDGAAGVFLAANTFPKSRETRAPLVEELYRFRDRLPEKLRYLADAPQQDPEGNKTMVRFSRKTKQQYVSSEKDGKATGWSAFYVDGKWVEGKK

[2] = molecular target: DNA topoisomerase 2-alpha (Homo sapiens) (UniProt P11388); assay: Inhibition of human Top2alpha assessed as decrease in relaxation of supercoiled pBR322 plasmid DNA at 100 uM using supercoiled pBR322 plasmid DNA as substrate incubated for 30 mins by agarose gel electrophoresis analysis
Chain of DNA topoisomerase 2-alpha (Homo sapiens) (P11388 whole entry): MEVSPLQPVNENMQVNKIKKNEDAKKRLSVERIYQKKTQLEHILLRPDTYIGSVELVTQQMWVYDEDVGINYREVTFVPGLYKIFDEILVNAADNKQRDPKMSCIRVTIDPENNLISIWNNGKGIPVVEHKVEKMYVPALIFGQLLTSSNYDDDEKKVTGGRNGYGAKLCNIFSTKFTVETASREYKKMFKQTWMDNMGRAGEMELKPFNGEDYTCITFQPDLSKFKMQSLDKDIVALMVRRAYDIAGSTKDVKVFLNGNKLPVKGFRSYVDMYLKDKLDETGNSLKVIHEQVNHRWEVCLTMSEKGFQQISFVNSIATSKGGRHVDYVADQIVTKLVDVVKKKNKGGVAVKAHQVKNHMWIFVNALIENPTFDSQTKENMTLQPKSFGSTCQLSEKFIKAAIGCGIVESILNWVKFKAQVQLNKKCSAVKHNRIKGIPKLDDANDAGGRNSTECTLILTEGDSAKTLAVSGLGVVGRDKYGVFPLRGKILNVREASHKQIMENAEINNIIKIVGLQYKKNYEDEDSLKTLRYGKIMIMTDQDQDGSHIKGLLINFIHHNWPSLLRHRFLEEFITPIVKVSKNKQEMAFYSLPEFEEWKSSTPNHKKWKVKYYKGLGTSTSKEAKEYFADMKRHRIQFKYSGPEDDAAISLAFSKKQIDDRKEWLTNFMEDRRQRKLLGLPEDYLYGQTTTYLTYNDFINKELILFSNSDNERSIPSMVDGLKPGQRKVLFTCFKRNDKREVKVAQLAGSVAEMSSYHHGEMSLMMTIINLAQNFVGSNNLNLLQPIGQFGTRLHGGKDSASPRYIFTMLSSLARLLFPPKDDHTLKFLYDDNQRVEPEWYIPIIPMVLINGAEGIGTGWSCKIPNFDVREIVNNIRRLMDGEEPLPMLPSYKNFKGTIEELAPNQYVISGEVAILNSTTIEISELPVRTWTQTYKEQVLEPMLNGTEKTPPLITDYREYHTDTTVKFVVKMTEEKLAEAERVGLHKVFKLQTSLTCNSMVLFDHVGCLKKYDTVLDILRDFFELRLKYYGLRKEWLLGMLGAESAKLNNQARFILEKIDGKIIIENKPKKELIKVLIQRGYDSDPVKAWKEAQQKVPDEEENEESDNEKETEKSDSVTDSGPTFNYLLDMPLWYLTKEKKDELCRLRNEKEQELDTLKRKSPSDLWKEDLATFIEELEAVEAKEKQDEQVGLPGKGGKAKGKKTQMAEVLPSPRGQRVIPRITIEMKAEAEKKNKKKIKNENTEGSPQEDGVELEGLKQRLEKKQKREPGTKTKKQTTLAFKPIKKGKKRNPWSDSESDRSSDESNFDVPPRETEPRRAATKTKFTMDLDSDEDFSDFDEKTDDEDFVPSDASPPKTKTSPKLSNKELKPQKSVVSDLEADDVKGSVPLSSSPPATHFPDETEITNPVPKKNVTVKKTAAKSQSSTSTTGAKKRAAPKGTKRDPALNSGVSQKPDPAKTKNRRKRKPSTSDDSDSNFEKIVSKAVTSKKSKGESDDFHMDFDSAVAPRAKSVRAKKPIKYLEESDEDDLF

| Structure (SMILES) | IC50 (MDA-MB-435) | IC50 (A549) | IC50 (HCT-116) | inhibition [1] | inhibition [2] |
| --- | --- | --- | --- | --- | --- |
| Cc1ccc2c(c1)c(Br)c1n2CCN2C(=O)c3ccccc3N(C)C12 (stereo unspecified) | 12.3 µM | 14.1 µM | 3.3 µM | – | – |
| CSc1ccc2cc3n(c2c1)CCN1C(=O)c2cc(F)ccc2N(C)C31 (stereo unspecified) | 85.8 µM | 8.3 µM | 9.4 µM | – | – |
| COc1ccc2c(c1)c(C)c1n2CCN2C(=O)c3cc(F)ccc3N(C)C12 (stereo unspecified) | 132 µM | 13.2 µM | 21.9 µM | – | – |
| COc1ccc2c(c1)cc1n2CCN2C(=O)c3c(ccn3C)N(C)C12 (stereo unspecified) | > 200 µM | > 200 µM | 190 µM | – | – |
| CN1c2ccccc2C(=O)N2CCCn3c(cc4cc(O)ccc43)C21 (stereo unspecified) | > 200 µM | 111 µM | > 200 µM | – | – |
| CN1c2ccc(F)cc2C(=O)N2CCn3c(cc4cc(OC5CCCCC5)ccc43)C21 (stereo unspecified) | 50.1 µM | 174 µM | 66.8 µM | – | – |
| COc1ccc2c(c1)cc1n2CCN2C(=O)c3cc(Cl)ccc3N(C)C12 (stereo unspecified) | > 200 µM | > 200 µM | 61.3 µM | – | – |
| COc1ccc2c(c1)c(CN1CCN(C)CC1)c1n2CCN2C(=O)c3cc(F)ccc3N(C)C12 (stereo unspecified) | 5.82 µM | 32.9 µM | 5.5 µM | – | – |
| CN1c2ccc(F)cc2C(=O)N2CCn3c(cc4cc(OC5CCCC5)ccc43)C21 (stereo unspecified) | > 200 µM | > 200 µM | 57.9 µM | – | – |
| [2H]C([2H])([2H])Oc1ccc2c(c1)cc1n2CCN2C(=O)c3cc(F)ccc3N(C)C12 (stereo unspecified) | 11.4 µM | 31.3 µM | 0.01 µM | – | – |
| COc1ccc2c(c1)cc1n2C(C)(C)CN2C(=O)c3cc(F)ccc3N(C)C12 (stereo unspecified) | 10.7 µM | > 200 µM | 1.5 µM | – | – |
| COc1ccc2c(c1)cc1n2CCN2C(=O)c3cc(OC)c(OC)cc3N(C)C12 (stereo unspecified) | 23.8 µM | > 200 µM | > 121 µM | – | – |
| COc1ccc2c(c1)c(CO)c1n2CCN2C(=O)c3cc(C)ccc3N(C)C12 (stereo unspecified) | 41.5 µM | 72.1 µM | 5.8 µM | – | – |
| COc1ccc2c(c1)cc1n2CCN2C(=O)c3sccc3N(C)C12 (stereo unspecified) | 44.6 µM | 47 µM | 9.5 µM | – | – |
| COc1ccc2c(c1)c(Br)c1n2CCN2C(=O)c3cc(F)ccc3N(C)C12 (stereo unspecified) | 89.1 µM | 12.3 µM | 9.2 µM | – | – |
| CN1c2ccc(F)cc2C(=O)N2CCn3c(cc4cc(OC5CCC5)ccc43)C21 (stereo unspecified) | > 200 µM | 98.5 µM | 34.1 µM | – | – |
| COc1ccc2c(c1)cc1n2CCCN2C(=O)c3ccccc3N(C)C12 (stereo unspecified) | 196 µM | 32 µM | 56 µM | – | – |
| CN1c2ccc(F)cc2C(=O)N2CCn3c(cc4cc(Cl)ccc43)C21 (stereo unspecified) | 143 µM | 53 µM | 6.7 µM | – | – |
| COc1ccc2c(c1)cc1n2CCN2C(=O)c3ccccc3N(C)C12 (stereo unspecified) | 20.2 µM | 2.7 µM | 12 µM | – | – |
| COc1cc2cc3n(c2c(OC)c1OC)CCN1C(=O)c2ccccc2N(C)C31 (stereo unspecified) | > 200 µM | > 200 µM | > 200 µM | – | – |
| CN1c2ccn(C)c2C(=O)N2CCn3c(cc4cc(O)ccc43)C21 (stereo unspecified) | > 200 µM | > 200 µM | > 200 µM | – | – |
| CN1c2ccccc2C(=O)N2CCc3c([nH]c4ccccc34)[C@H]21 | 22.1 µM | > 200 µM | > 200 µM | – | – |

| Structure (SMILES) | IC50 (MDA-MB-435) | IC50 (A549) | IC50 (HCT-116) | inhibition [1] | inhibition [2] |
| --- | --- | --- | --- | --- | --- |
| COc1ccc2c(c1)N(C)C1c3cc4cc(Br)ccc4n3CCN1C2=O (stereo unspecified) | > 200 µM | > 200 µM | > 200 µM | – | – |
| CN1c2ccccc2C(=O)N2CCn3c(cc4cc(O)ccc43)C21 (stereo unspecified) | 16.8 µM | 14.5 µM | 44.3 µM | – | – |
| CN1c2ccccc2C(=O)N2CCn3c(cc4ccc(Cl)cc43)C21 (stereo unspecified) | > 200 µM | > 200 µM | > 200 µM | – | – |
| CN1c2ccsc2C(=O)N2CCn3c(cc4cc(O)ccc43)C21 (stereo unspecified) | 66.8 µM | 30.3 µM | 106 µM | – | – |
| CN1c2ccccc2C(=O)N2CCn3c(cc4cc(Br)ccc43)C21 (stereo unspecified) | 15.9 µM | 15.2 µM | 7.3 µM | – | – |
| COc1ccc2c(c1)c(CO)c1n2CCN2C(=O)c3cc(F)ccc3N(C)C12 (stereo unspecified) | 22.8 µM | 6.6 µM | 5.6 µM | – | – |
| COc1ccc2c(c1)cc1n2CCN2C(=O)c3cc(C)ccc3N(C)C12 (stereo unspecified) | > 200 µM | > 200 µM | 19.4 µM | – | – |
| Cc1ccc2c(c1)cc1n2CCN2C(=O)c3ccccc3N(C)C12 (stereo unspecified) | 13.3 µM | > 200 µM | 0.03 µM | Active | inactive |
| CN1c2ccccc2C(=O)N2CCn3c(cc4cc(Cl)ccc43)C21 (stereo unspecified) | 13.5 µM | 27.7 µM | 4.4 µM | Active | inactive |
| CN1c2ccc(F)cc2C(=O)N2CCn3c(cc4cc(Br)ccc43)C21 (stereo unspecified) | 97.6 µM | > 200 µM | 28.5 µM | – | – |
| CN1c2ccccc2C(=S)N2CCn3c(cc4cc(F)ccc43)C21 (stereo unspecified) | > 200 µM | > 200 µM | > 200 µM | – | – |
| COc1ccc2c(c1)cc1n2C(C)(C)CN2C(=O)c3ccccc3N(C)C12 (stereo unspecified) | 86.4 µM | 181 µM | 6.2 µM | – | – |
| COc1ccc2c(c1)c(C=O)c1n2CCN2C(=O)c3cc(F)ccc3N(C)C12 (stereo unspecified) | > 200 µM | 59.2 µM | > 200 µM | – | – |
| COc1ccc2c(c1)N(C)C1c3cc4ccccc4n3CCN1C2=O (stereo unspecified) | > 200 µM | 24.3 µM | 124 µM | – | – |
| COc1ccc2c(c1)N(C)C1c3cc4cc(OC)ccc4n3CCN1C2=O (stereo unspecified) | > 200 µM | 30.8 µM | 180 µM | – | – |
| CN1c2ccccc2C(=O)N2CCn3c(cc4cc(F)ccc43)C21 (stereo unspecified) | > 200 µM | > 200 µM | > 200 µM | – | – |
| COc1ccc2c(c1)c(C=O)c1n2CCN2C(=O)c3cc(C)ccc3N(C)C12 (stereo unspecified) | 70.5 µM | > 200 µM | 18.1 µM | – | – |
| COc1ccc2c(c1)cc1n2CCN2C(=O)c3cc(Br)ccc3N(C)C12 (stereo unspecified) | > 200 µM | > 200 µM | > 200 µM | – | – |
| COc1ccc2c(c1)C(=O)N1CCn3c(cc4ccccc43)C1N2C (stereo unspecified) | 168 µM | 15.6 µM | 49.2 µM | – | – |
| CN1c2ccc(F)cc2C(=O)N2CCn3c(cc4cc(OC(F)(F)F)ccc43)C21 (stereo unspecified) | > 200 µM | 95.5 µM | 0.83 µM | – | – |
| COc1ccc2c(c1)cc1n2CCN2C(=O)c3cc(N)ccc3N(C)C12 (stereo unspecified) | > 200 µM | > 200 µM | > 200 µM | – | – |
| Cc1ccc2c(c1)cc1n2CCN2C(=O)c3cc(F)ccc3N(C)C12 (stereo unspecified) | 1 µM | 22.8 µM | 0.06 µM | – | – |
